The term IC50 denotes the concentration that gives 50% inhibition. Low readings indicate higher potency, high ones lower potency.

Data on 2 molecules can be found in PMC10587159, “Biosynthesis and engineering of the nonribosomal peptides with a C-terminal putrescine” (Nature Communications, 2023).

The test system of data set [1] is human cells Kasumi. The data set can be described thus: MTT cytotoxicity assay, Kasumi. It is filed as cell-based. The conditions noted are these: 24 h. The text has this:
(§1) The two human acute lymphoblastic leukemia cells K562 and Kasumi, two human breast adenocarcinoma cells MCF7 and MDA-MB-231, human hepatoma cell HepG-2, human lung adenocarcinoma cell A549, human gastric cancer cell SGC-7901, human colon cancer cell HCT-116, human ovarian cancer cell line SKOV3, or human lung epithelial normal cell 2B were obtained from Beyotime Biotechnology and utilized to test the cytotoxicity of compounds by MTT assays as previous study. The anti-inflammatory effect of the compounds was detected by the influence on the increase in the level of nitric oxide caused by lipopolysaccharide (LPS) based on the classic Griess method. RAW 264.7 cells (Shanghai Institutes for Biological Science) were seeded in 96-well plates and incubated for 24 h. Then, cells were treated with compounds 29, 29a, 31, and 31a (0-80 μM) for 30 min, followed by co-treatment with LPS ([…]) for another 24 h. The Nitric Oxide assay kit with Griess reagents (Beyotime, Lot: S0021, Shanghai, China) was used to examine cellular supernatant nitrite accumulation, which represents cellular NO levels. The OD value of 540 nm absorbance was detected with a microplate reader. Their authentication in the laboratory was performed regularly based on morphology and gene/protein expression. The tested micro-organisms including Gram-negative bacteria E. coli ATCC 35218 and Pseudomonas aeruginosa ATCC 27853, and Gram-positive bacteria Staphylococcus aureus ATCC 29213 and B. subtilis ATCC 6633, and fungi Candida albicans, Rhizoctonia solani and Aspergillus fumigatus were treated with different concentrations of compounds (1 μM, 10 μM, 100 μM) using Bauer-Kirby disk diffusion method to evaluate the antimicrobial activities.
For orientation: Tetrazolium dyes change colour on reduction, which living cells bring about.

For data set [2], the system named is human lung adenocarcinoma cell A549. Nature of the data set: MTT cytotoxicity assay, A549. In kind it is cell-based. Particulars: for IC50: 24 h.
Excerpt: as §1

Data set [3] concerns human acute lymphoblastic leukemia cells K562. The data set can be described thus: cells. In kind it is cell-based. Particulars: 24 h.
Excerpt: as §1

The subject of data set [4] is human breast adenocarcinoma cells MCF7. Nature of the data set: cells. It is filed as cell-based. Particulars: 24 h.
Excerpt: as §1

For data set [5], the system named is human breast adenocarcinoma cells MDA-MB-231. The data set can be described thus: cells. Particulars: 24 h. In kind it is cell-based.
Excerpt: as §1

For data set [6], the system named is human colon cancer cell HCT-116. Nature of the data set: cells. Particulars: 24 h. It is filed as cell-based.
Excerpt: as §1

Data set [7] concerns human gastric cancer cell SGC-7901. The data set can be described thus: cells. It is filed as cell-based. Particulars: 24 h.
Excerpt: as §1

Data set [8] deals with human hepatoma cell HepG-2. The data set can be described thus: cells. In kind it is cell-based. The conditions noted are these: 24 h.
Excerpt: as §1

Data set [9] deals with human lung epithelial normal cell 2B. Nature of the data set: cells. In kind it is cell-based. Particulars: 24 h.
Excerpt: as §1

For data set [10], the system named is tumor lines. Nature of the data set: MTT cytotoxicity assay, statements on the whole panel. It is filed as cell-based, human. Particulars: MTT assay, panel of tumor cell lines.
Excerpt: as §1

Data set [11] deals with native host DSM 7029. The data set can be described thus: Inhibition zone test on the native host DSM 7029. It is filed as cell-based, Schlegelella brevitalea DSM 7029. The conditions noted are these: same method as for the seven tested strains.
Excerpt: as §1, with “The tested micro-organisms including Gram-negative bacteria E. coli ATCC 35218 and Pseudomonas aeruginosa ATCC 27853, and Gram-positive bacteria Staphylococcus aureus ATCC 29213 and B. subtilis ATCC 6633, and fungi Candida albicans, Rhizoctonia solani and Aspergillus fumigatus were treated with different concentrations of compounds (1 μM, 10 μM, 100 μM) using Bauer-Kirby disk diffusion method to evaluate the antimicrobial activities.” left out

The test system of data set [12] is S. brevitalea DSM 7029 wild type. Nature of the data set: Growth curve of DSM 7029 wild type with compounds (Bioscreen C). It is filed as cell-based, Schlegelella brevitalea DSM 7029. The conditions noted are these: CYMG medium. As to the method:
(§2) The growth curve was tested by Bioscreen C (Labsystems, Finland) as follow. Overnight culture was inoculated into 400 μL fresh CYMG medium in the ratio of 1:100 (the concentration of compounds was 0.1 μg/μL) and shook in normal speed. The OD600 value was gained in every hour for 42 h in total. Biofilm formation was measured at 18 h and 36 h respectively, as reported previously. In brief, the free-floating cells were removed, and the microtitre plate was washed with PBS (pH 7.4) after incubation for 18 h and 36 h. The biofilm was stained by adding 200 µL of crystal violet (0.1%) solution. Crystal violet solution was removed after 15 min and 200 µL of ethanol (95%) was added. The absorbance at OD600 was read using a microplate reader (Infinite M200, Tecan, Männedorf, Switzerland). Meanwhile, free-floating cells were used to test the secretion of pigment. The bacteria were removed and the supernatant was measured at OD600.

Data set [13] shares this test system. Nature of the data set: Biofilm formation of DSM 7029 wild type with compounds (crystal violet). The conditions noted are these: crystal violet staining. It is filed as cell-based, Schlegelella brevitalea DSM 7029. Here is the method:
as §2

The subject of data set [14] is HepG2 cells. The data set can be described thus: Extracellular and intracellular compound in HepG2 cells (LC-MS). The conditions noted are these: 3 h; for Intracellular compound, Average / Extracellular compound, Average: HepG2, six-well plates, 5 μg/mL (10,000 ng in total), mean of n = 3; for Intracellular compound, Average: cells extracted with MeOH; for Extracellular compound, Average: culture medium extracted with MeOH. In kind it is in vitro ADME, human. Here is the method:
(§3) Comparing the concentration of compounds (7, 10, 10a) in extracellular and intracellular after the HepG2 cell line dealt with compounds. HepG2 cells were plated in six-well plates at a density of 1.5 × 10^5 cells/well and grew overnight. After cell treated with compounds (5 μg/mL) for 3 h, the compounds were extracted with MeOH for cells culture medium and cells separately as followed the reported method. The compounds were quantified by LC‒MS (5%‒95% ACN in 15 min). The cell numbers of HepG2 with the compounds treatments was determined. […]
(§4) To determine whether the difference in bioactivity of products (with or without Put moiety) is due to variations in cellular uptake, we treated hepatoma cell line HepG2 with compounds 7 (C12 acyl), 10 (C14 acyl), and 10a (C14 acyl and without Put) (Supplementary Fig. 33c). The cells were treated for 3 h, and then culture medium and cells were extracted separately. LC-MS was used to detect and quantify the compounds.
(§5) At lower concentrations (5000 ng/mL, and 10,000 ng in total for each group), and […]
(§6) may be contributing to the differences in antitumor activity (Supplementary Fig. 33b).
(§7) This could be due to differences in the speed of cellu lar uptake or differences in drug metabolism rate, requiring further experimental investigation.

In data set [15] the test system is HepG2 cells. Nature of the data set: Cell numbers of HepG2 after compound treatment. In kind it is cell-based, human. Particulars: HepG2, 1.5 × 10^5 cells/well plated, compound 5 μg/mL, 3 h; mean of n = 3. As to the method:
as §3, §4, §5, §6, §7

Data set [16] can be described thus: Solubility in solvents (observation). Particulars: observation in water, methanol, acetonitrile, DMSO. In kind it is physicochemical. The source says:
Putrescine is also a precursor of some specialized compounds, such as industrial polyamide nylon 4,6[33] and siderophore alcaligin[55]. To clarify the function of the Put moiety of glidonins, we synthesized lipopeptide 10a without the Put group.

“Also recorded” adds a separate entry of the source. Non-standard residues stand in square brackets, D forms with d. Residues, ends and D or L forms follow the SMILES beside them. *: point of attachment. Myristoyl = CCCCCCCCCCCCCC(=O)*; NH(CH2)4NH2 = NCCCCN*

In the case of `CCCCCCCCCCCCCC(=O)N[C@H](CCSC)C(=O)N[C@H](CC(N)=O)C(=O)N1CCC[C@H]1C(=O)N[C@H](C(=O)N[C@H](Cc1ccccc1)C(=O)N1CCC[C@H]1C(=O)N[C@@H](Cc1c[nH]c2ccccc12)C(=O)N[C@@H](C(=O)N[C@@H](C)C(=O)N[C@H](C)C(=O)N[C@@H](CO)C(=O)N[C@@H](C)C(=O)NCCCCN)C(C)C)C(C)C` [Compound 10, Glidonin J] (Myristoyl-[dM][dN]PV[dF]PW[dV]A[dA]SA-{NH(CH2)4NH2}), the concentration for half-maximal inhibition (IC50) in [1] was 1.39 µM; in data set [2], 7.15 ± 0.47 µM; in data set [3] it was 7.2 ± 0.79 µM; in [4] it was > 20 µM; in data set [5], 7.2 ± 0.79 µM; in data set [6] it was > 20 µM. The half-inhibitory concentration (IC50) in [7] is > 20 µM; in [8], 6.68 µM; in data set [9], 11.8 ± 0.15 µM. Also, the “cytotoxic / antitumor activity in words” value in data set [10] was “broad-spectrum cytotoxicity”. In addition, in data set [11], the “inhibition of native host DSM 7029, inhibition zone method” value is reported as “no inhibition”. Also, in data set [12] (compound 0.1 μg/μL, OD600 every hour for 42 h, Bioscreen C), the “effect on growth of DSM 7029 wild type in words” value is recorded as “weak inhibition of growth; also recorded: obviously inhibit the growth”. Also, the “OD600 of wild type DSM 7029 with addition of compounds” value in [12] (control OD600 0.6) was 0.4. Moreover, the “effect on biofilm formation of DSM 7029 wild type in words” value in data set [13] is reported as “increased biofilm formation”. Besides, the “total quantities (intracellular plus extracellular) in words” value in data set [14] (HepG2, 5000 ng/mL, compared to 10a) is listed as “lower total quantities”. In addition, the “Intracellular compound, Average” value in data set [14] was 6.078 ng. In data set [14], the “Extracellular compound, Average” value is recorded as 1078.84 ng. The “The cell numbers, Average” value in data set [15] came out at 1303333. Also, in data set [16], the solubility in words entry was “easily soluble in water, methanol and acetonitrile”.
Consider `CCCCCCCCCCCCCC(=O)N[C@H](CCSC)C(=O)N[C@H](CC(N)=O)C(=O)N1CCC[C@H]1C(=O)N[C@H](C(=O)N[C@H](Cc1ccccc1)C(=O)N1CCC[C@H]1C(=O)N[C@@H](Cc1c[nH]c2ccccc12)C(=O)N[C@@H](C(=O)N[C@@H](C)C(=O)N[C@H](C)C(=O)N[C@@H](CO)C(=O)N[C@@H](C)C(=O)O)C(C)C)C(C)C` [Compound 10a] (Myristoyl-[dM][dN]PV[dF]PW[dV]A[dA]SA-OH), for which the concentration for half-maximal inhibition (IC50) in data set [2], in data set [8] and in data set [9] was > 20 µM each time. Also, the “cytotoxic / antitumor activity against A549 in words” value in data set [2] (MTT assay) is “lower than those of 10”. Also, the “Intracellular compound, Average” value in data set [14] stood at 11.984 ng. Besides, the “Extracellular compound, Average” value in data set [14] is recorded as 7245.41 ng. The solubility in words result in [16] is “soluble only in dimethyl sulfoxide (DMSO)”.
